Test results published in patent US8956645B2, “Water-soluble pharmaceutical composition comprising at least one therapeutically active substance having hydrophobic properties and at least one compound selected from among sialoglycosphingolipids, glycosphingolipids or a mixture of sialoglycosphingolipids and glycosphingolipids” (Consejo Nacional de Investigaciones Cientificas y Tecnicas …, priority 2010, dated 2015).

Experiments:
[1] = tested on: HEP-2 and Hela cells; assay: Cell viability by MTT assay, tumoral cells; format: cell-based; details: 24 hours
Description: FIG. 7: HEP-2 and HELA cells of tumor origin were incubated with increasing concentrations of: a)-( ? ) Ptx in DMSO, b)-( ? ) Ptx-GM1 micelles 1/25, c)-( ? ) GM1 micelles and d)-( ? ) micelles of the GM1-Ptx-albumine complex. Cellular viability was evaluated using MTT assay after 24 hs incubation.
(§1) Different cell types, tumoral such as HEP-2 and Hela, and non-tumoral as VERO and MA were incubated in MEM medium containing 2% fetal bovine serum (Natocor-Villa Carlos Paz—Córdoba—Argentina) in a CO2 incubator with 5% CO2, to confluence. Different concentrations of the compositions mentioned below were added to the cell culture: […]
(§2) a)—Ptx in DMSO as positive control b)—Ptx-GM1 micelles 1/25 molar ratio c)—GM1 micelles in equal concentrations as in b), to control the effect of the GM1 itself, and d)—micelles of the albumin-Ptx-GM1 complex
(§3) Cell viability was evaluated by MTT assay after 24 hours of incubation.

[2] = tested on: VERO and MA cells; assay: Cell viability by MTT assay, non-tumoral cells; format: cell-based; details: 24 hours
Description: FIG. 6: VERO and MA cells of non tumoral origin were incubated with increasing concentrations of: a)-( ? ) Ptx in DMSO, b)-( ? ) micelles of Ptx-GM1 1/25, c)-( ? ) micelles of GM1 and d)-( ? ) micelles of the albumine-Ptx-GM1 complex. Cellular viability was evaluated using MTT assay marker after 24 hs incubation.
as §1, §2, §3

Compound: CC(=O)O[C@H]1C(=O)[C@@]2(C)[C@H]([C@H](OC(=O)c3ccccc3)[C@]3(O)C[C@H](OC(=O)[C@H](O)[C@@H](NC(=O)c4ccccc4)c4ccccc4)C(C)=C1C3(C)C)[C@]1(OC(C)=O)CO[C@@H]1C[C@@H]2O [Ptx, paclitaxel]
- concentration producing complete death [1]: 10 ng/mL
- concentration producing complete death [2]: 100 ng/mL
